In US8653056B2, “Method of preparation of a soluble formulation of water-insoluble pentacyclic and tetracyclic terpenoids, a soluble formulation of a pentacyclic or tetracyclic terpenoid and a pharmaceutical composition containing this soluble formulation” (Univerzita Karlova V Praze, Prirodovedecka Fakulta, priority 2006, dated 2014):

Test: Concentration of dissolved triterpenoid in the aqueous cyclodextrin solution (HPLC-ESI MS)
Format: physicochemical
Details: solution method A: water, saturated sodium hydrogencarbonate solution, ethanol, 2-hydroxypropyl-γ-cyclodextrin, 50° C.
Protocol: (§1) Into the resulting colourless, viscous solution, soluble triterpene derivative (1.50 g) is added at once and the mixture is again vigorously stirred at the temperature of 50° C. […] After the triterpenoid is completely dissolved, the resulting clear solution is cooled to room temperature, filtered with a syringe filter (hydrophilic, pore size 0.22 μm) in order to be sterile and is placed in a refrigerator.
as §1, with “Method B: In a mixture of water (14.0 ml) and propylene glycol (6.0 ml), 2-hydroxypropyl-γ-cyklodextrin (7.00 g) is dissolved at the temperature of 50° C. under vigorous stirring. Into” for “Into”, “derivate (1.00” for “derivative (1.50”, “and” for “and the mixture”
Analytic Determination of the Concentration of Dissolved Triterpenoids in the Application Form and in Plasma Samples
HPLC-ESI MS technique was used or the determination of the concentration of dissolved triterpenoids. The samples were measured in one analytical batch with calibration solutions and blind control. The sample for the measurement was prepared from 50 μl of aqueous solution containing the inclusion compound by dilution with methanol to the volume of 10 ml. Subsequently, 10 μl of the sample solution after the first dilution is further diluted to 1 ml by the mobile phase. The blind control was obtained from 50 μl of pre-prepared aqueous solution of 2-hydroxypropyl-γ-cyklodextrin by dilution with methanol to 10 ml. Subsequently, 10 μl of the blind control solution after the first dilution is further diluted to 1 ml by methanol. Stock solutions of standards (concentration 0.2 mg/ml) were prepared by weighing 2.00 mg of analyte to 10 ml graduated flask and dissolution in methanol. The calibration samples were then prepared by dilution of the stock solution with mobile phase (0.4 μg/ml resp. 4 μg/ml).
The concentration was determined by comparison with standard and calculated to the original solution containing the inclusion compound.

Compound | Conc. of dissolved substance
C=C(C)C1CCC2(C(=O)OC)CCC3(C)C(CCC4C5(C)CCC(OC(=O)C6CC=CCC6C(=O)O)C(C)(C)C5CCC43C)C12 (mixture of isomers) [2m] | 43000 µg/mL
C=C(C)C1CCC2(COC(=O)CCC(=O)O)CCC3(C)C(CCC4C5(C)CCC(OC(=O)CCC(=O)O)C(C)(C)C5CCC43C)C12 (stereo not shown) [1a, betulin dihemisuccinate] | 54000 µg/mL
C=C(C)[C@@H]1CC[C@]2(COC(=O)c3ccccc3C(=O)O)CC[C@]3(C)[C@H](CC[C@@H]4[C@@]5(C)CC[C@H](OC(=O)c6ccccc6C(=O)O)C(C)(C)[C@@H]5CC[C@]43C)[C@@H]12 [1b, betulin dihemiphtalate] | 39000 µg/mL
C=C(C)[C@@H]1CC[C@]2(C(=O)OCC)CC[C@]3(C)[C@H](CC[C@@H]4[C@@]5(C)CC[C@H](OC(=O)c6ccccc6C(=O)O)C(C)(C)[C@@H]5CC[C@]43C)[C@@H]12 [2c] | 41000 µg/mL
C=C(C)[C@@H]1CC[C@]2(C(=O)O)CC[C@]3(C)[C@H](CC[C@@H]4[C@@]5(C)CC[C@H](OC(=O)CCC(=O)O)C(C)(C)[C@@H]5CC[C@]43C)[C@@H]12 [2e] | 51000 µg/mL
C=C(C)[C@@H]1CC[C@]2(C(=O)O[C@@H]3O[C@H](CO)[C@@H](O)[C@H](O)[C@H]3O)CC[C@]3(C)[C@H](CC[C@@H]4[C@@]5(C)CC[C@H](O)C(C)(C)[C@@H]5CC[C@]43C)[C@@H]12 [2j] | 59000 µg/mL
CC(=O)O[C@H]1CC[C@]2(C)[C@H]3CC[C@@H]4C5=C(C(C)C)C(=O)C[C@]5(C(=O)OCC(=O)O)CC[C@@]4(C)[C@]3(C)CC[C@H]2C1(C)C [4a] | 59000 µg/mL
CCOC(=O)[C@@]12CC[C@]3(C)[C@H](CC[C@@H]4[C@@]5(C)CC[C@H](OC(=O)CCC(=O)O)C(C)(C)[C@@H]5CC[C@]43C)C1=C(C(C)C)C(=O)C2 [4e] | 53000 µg/mL
CCOC(=O)[C@@]12CC[C@]3(C)[C@H](CC[C@@H]4[C@@]5(C)CC[C@H](OC(=O)c6ccccc6C(=O)O)C(C)(C)[C@@H]5CC[C@]43C)C1=C(C(C)C)C(=O)C2 [4f] | 28000 µg/mL
CCOC(=O)[C@@]12CC[C@]3(C)[C@H](CC[C@@H]4[C@@]5(C)CC[C@H](OC(=O)CC(C)(C)CC(=O)O)C(C)(C)[C@@H]5CC[C@]43C)C1=C(C(C)C)C(=O)C2 [4q] | 58000 µg/mL
CCOC(=O)[C@@]12CC[C@]3(C)[C@H](CC[C@@H]4[C@@]5(C)CC[C@H](OC(=O)CC(C)(C)C(=O)O)C(C)(C)[C@@H]5CC[C@]43C)C1=C(C(C)C)C(=O)C2 [4r] | 44000 µg/mL
COC(=O)[C@@]12CC[C@]3(C)[C@H](CC[C@@H]4[C@@]5(C)CC[C@H](OC(=O)CC(C)(C)C(=O)O)C(C)(C)[C@@H]5CC[C@]43C)C1=C(C(C)C)C(=O)C2 [4s] | 44000 µg/mL
CC(C)C1=C2[C@H]3CC[C@@H]4[C@@]5(C)CC[C@H](OC(=O)CC(C)(C)CC(=O)O)C(C)(C)[C@@H]5CC[C@@]4(C)[C@]3(C)CC[C@@]2(C(=O)O)CC1=O [4u] | 44000 µg/mL
CCOC(=O)[C@@]12CC[C@]3(C)[C@H](CC[C@@H]4[C@@]5(C)CC[C@H](OC(=O)COCC(=O)O)C(C)(C)[C@@H]5CC[C@]43C)C1=C(C(C)C)C(=O)C2 [4x] | 44000 µg/mL
CC1(C)C(OC(=O)CCC(=O)O)CCC2(C)C1CCC1(C)C2CCC2C(=O)C(COC(=O)CCC(=O)O)(C(=O)O)CCC21C (stereo not shown) [7c] | 73000 µg/mL
CC1(C)C(OC2OC(CO)C(O)C(O)C2O)CCC2(C)C1CCC1(C)C2CCC2C(=O)C(COC3OC(CO)C(O)C(O)C3O)(C(=O)O)CCC21C (stereo not shown) [7f] | 72000 µg/mL
C=C(C)[C@@H]1CC[C@]2(C(=O)O)CC[C@]3(C)[C@H](CC[C@@H]4[C@@]5(C)CC[C@H](O)C(C)(C)[C@@H]5CC[C@]43C)[C@@H]12 [compound 2, Betulinic acid, reference compound] | 38000 µg/mL
C=C(C=O)[C@@H]1CC[C@]2(C(=O)OCC)CC[C@]3(C)[C@H](CC[C@@H]4[C@@]5(C)CC[C@H](OC(=O)c6ccccc6C(=O)O)C(C)(C)[C@@H]5CC[C@]43C)[C@@H]12 [hemiphtalate 3b] | 40000 µg/mL

Same assay, conditions: solution method B: water, propylene glycol, 2-hydroxypropyl-γ-cyclodextrin, 50° C.

Compound | Conc. of dissolved substance
C=C(C)[C@@H]1CC[C@]2(CO[C@@H]3O[C@H](CO)[C@@H](O)[C@H](O)[C@H]3O)CC[C@]3(C)[C@H](CC[C@@H]4[C@@]5(C)CC[C@H](O[C@@H]6O[C@H](CO)[C@@H](O)[C@H](O)[C@H]6O)C(C)(C)[C@@H]5CC[C@]43C)[C@@H]12 [1c, betulin diglucoside] | 55000 µg/mL
C=C(C)[C@@H]1CC[C@]2(C(=O)OCC)CC[C@]3(C)[C@H](CC[C@@H]4[C@@]5(C)CC[C@H](O)C(C)(C)[C@@H]5CC[C@]43C)[C@@H]12 [2a, Ethyl-betulinate] | n (n = concentration lower than the detection threshold, i.e. 1 ng/ml)
C=C(C)[C@@H]1CC[C@]2(C(=O)OCC)CC[C@]3(C)[C@H](CC[C@@H]4[C@@]5(C)CC[C@H](O[C@@H]6O[C@H](CO)[C@@H](O)[C@H](O)[C@H]6O)C(C)(C)[C@@H]5CC[C@]43C)[C@@H]12 [2d] | 43000 µg/mL
C=C(C)[C@@H]1CC[C@]2(C(=O)OC)CC[C@]3(C)[C@H](CC[C@@H]4[C@@]5(C)CC[C@H](O)C(C)(C)[C@@H]5CC[C@]43C)[C@@H]12 [2h, Methyl betulinate] | n (n = concentration lower than the detection threshold, i.e. 1 ng/ml)
C=C(C)[C@@H]1CC[C@]2(C(=O)O[C@@H]3O[C@H](CO)[C@@H](O)[C@H](O)[C@H]3O)CC[C@]3(C)[C@H](CC[C@@H]4[C@@]5(C)CC[C@H](O)C(C)(C)[C@@H]5CC[C@]43C)[C@@H]12 [2j] | 70000 µg/mL
C=C(C=O)[C@@H]1CC[C@]2(C(=O)OCC)CC[C@]3(C)[C@H](CC[C@@H]4[C@@]5(C)CC[C@H](O)C(C)(C)[C@@H]5CC[C@]43C)[C@@H]12 [3a] | n (n = concentration lower than the detection threshold, i.e. 1 ng/ml)
CC(=O)O[C@H]1CC[C@]2(C)[C@H]3CC[C@@H]4C5=C(C(C)C)C(=O)C[C@]5(C(=O)OCC[N+](C)(C)C)CC[C@@]4(C)[C@]3(C)CC[C@H]2C1(C)C.[Br-] [4b] | 47000 µg/mL
CC(=O)O[C@H]1CC[C@]2(C)[C@H]3CC[C@@H]4C5=C(C(C)C)C(=O)C[C@]5(C(=O)OCC[n+]5ccccc5)CC[C@@]4(C)[C@]3(C)CC[C@H]2C1(C)C.[Br-] [4c] | 33000 µg/mL
COC(=O)C12CCC3(C)C(CCC4C5(C)CCC(O)C(C)(C)C5CCC43C)C1=C(C(C)C)C(=O)C2 (stereo not shown) [4d] | n (n = concentration lower than the detection threshold, i.e. 1 ng/ml)
CCOC(=O)[C@@]12CC[C@]3(C)[C@H](CC[C@@H]4[C@@]5(C)CC[C@H](O[C@@H]6C[C@@H](OC(C)=O)[C@@H](OC(C)=O)[C@@H](COC(C)=O)O6)C(C)(C)[C@@H]5CC[C@]43C)C1=C(C(C)C)C(=O)C2 [4j] | 60000 µg/mL
COC(=O)[C@@]12CC[C@]3(C)[C@H](CC[C@@H]4[C@@]5(C)CC[C@H](O[C@@H]6C[C@@H](OC(C)=O)[C@H](OC(C)=O)[C@@H](COC(C)=O)O6)C(C)(C)[C@@H]5CC[C@]43C)C1=C(C(C)C)C(=O)C2 [4l] | 61000 µg/mL
CC1(C)C(OC2OC(CO)C(O)C(O)C2O)CCC2(C)C1CCC1(C)C2CCC2C(=O)C(COC3OC(CO)C(O)C(O)C3O)(C(=O)O)CCC21C (stereo not shown) [7f] | 79000 µg/mL
C=C(C)[C@@H]1CC[C@]2(CO)CC[C@]3(C)[C@H](CC[C@@H]4[C@@]5(C)CC[C@H](O)C(C)(C)[C@@H]5CC[C@]43C)[C@@H]12 [Betulin, reference compound] | n (n = concentration lower than the detection threshold, i.e. 1 ng/ml)
